Source: patent US20110212954A1, “ALPHA-LIPOIC ACID DERIVATIVES AND THEIR USE IN DRUG PREPARATION” (priority 2008, published 2011)

System: not listed separately
Test: Pharmacokinetic study in rats after oral administration of a single dose, HPLC-MS of plasma
Type: in vivo
Conditions: rat, shorter treatment intervals (5-30 minutes)
Description: The bioavailability of some compounds synthesized (Examples 1a, 2, 2a, 3, 3a, 10, 15a, 16a and 24) was studied in rats after oral administration of a single dose (48.5 μmol/kg) and compared with the reference (R)- or (RS)-α-LA.
Each treatment was carried out on groups of 6 male rats (Sprague-Dawley SD rat) per compound. At regular times, blood withdrawals were carried out for the measurement by HPLC-MS of the concentration of plasmatic α-LA (FIGS. 5, 7, 9) and of the residual compound administered (FIGS. 6, 8).

Row | concentration of alpha-lipoic acid in plasma after 30 minutes from administration (FIG. 9) | Compound
1 | significant concentration | CCCCNC(=O)CCCC[C@@H]1CCSS1 [Example 2, (R)-5-[1,2]dithiolan-3-yl-pentanoic acid butylamide]

Same assay, conditions: rat, single dose 48.5 μmol/kg

Row | hydrolysis profile in vivo compared with the corresponding racemic compound (FIG. 7 vs FIG. 5) | Compound | released alpha-lipoic acid and compound itself in plasma, any withdrawal time
2 | more linear hydrolysis profile | CCCCNC(=O)CCCC[C@@H]1CCSS1 [Example 2, (R)-5-[1,2]dithiolan-3-yl-pentanoic acid butylamide] | 
3 |  | O=C(CCCC[C@@H]1CCSS1)NCCCN1CCOCC1 [Example 3, (R)-5-[1,2]dithiolan-3-yl-pentanoic acid(3-morpholin-4-yl-propyl)-amide] | neither released alpha-lipoic acid nor the compound itself was detected

System: protein pool extracted from murine liver
Test: In vitro enzyme hydrolysis assay, thin-layer chromatography detection
Type: in vitro ADME, mouse
Conditions: 1 mg murine liver protein extract, 50 μg compound, 1 hour, 25° C.
Description: In view of what found from the results of Example 29, an in vitro enzyme hydrolysis assay was carried out with the aim of further clarifying which of the synthesized derivatives behaved as alpha-lipoic acid precursors, i.e. as prodrugs able to release alpha-lipoic acid by hydrolysis.
A protein pool extracted from murine liver, containing enzymes able to promote hydrolysis of the compounds of the invention, was used to reintroduce in vitro the hydrolytic activity previously described in the pharmacokinetic studies.
Methodology • The liver of a wild-type mouse was removed; excess blood was removed by washing in phosphate buffer saline (PBS); • Said liver was transferred into a homogenizer with a sufficient amount of lysis buffer (50 mM Tris HCl pH 7.5-8.0; 150 mM NaCl; 5 mM EGTA pH 7.5-8.0; 50 mM NaF pH 8.0; 10% (v/v) glycerol; 1.5 mM MgCl2, 1% Triton X-100) enriched with protease and phosphatase inhibitors (Protease Inhibitor Cocktail; Sigma-Aldrich). 15-20 impacts were applied by the pestle in order to obtain a homogeneous solution; • The entire mixture was left under agitation at +4° C. for 1 hour; after centrifugation at 14000 rpm, the supernatant containing the extracted proteins was recovered; • The amount of extracted protein was determined using the Bradford assay; • The enzymatic hydrolysis reaction was carried out: 1 mg of protein extract for hydrolysing 50 μg of synthesized compound (dissolved in DMSO); 1, 3 or 24 hours at 25° C. under agitation; • The digestion product(s) was/were detected using thin-layer chromatography: mobile phase (60:40:1 of ethyl acetate; n-hexane; acetic acid); silica plate (Sigma-Aldrich); phosphomolybdic reagent; • The digestion products were analyzed and compared with (R)-α-LA (Sigma-Aldrich), and with the non-hydrolysed compound of the invention.
It was, therefore, possible to detect (R)-alpha-lipoic acid as the hydrolysis product and to differentiate it from the enantiomers of the invention.

Row | enzymatic hydrolysis after 1 h (FIG. 2) | Compound
4 | completely hydrolyzed | CC(C)(C)C(=O)OCOC(=O)CCCC[C@@H]1CCSS1 [Example 15, (R)-5-[1,2]dithiolan-3-yl-pentanoic acid 2,2-dimethyl-propionyloxymethyl ester]
5 | completely hydrolyzed | CCCC(=O)OCOC(=O)CCCC[C@@H]1CCSS1 [Example 16, (R)-5-[1,2]dithiolan-3-yl-pentanoic acid butyryloxymethyl ester]
6 | partial hydrolization | CC(OC(=O)CCCC[C@@H]1CCSS1)OC(=O)C(C)(C)C (stereo partly drawn) [Example 18, (R)-5-[1,2]dithiolan-3-yl-pentanoic acid 2,2-dimethyl-propionyloxyethyl ester]

Row | Compound | enzymatic hydrolysis after 1 h (FIG. 2)
7 | CC(=O)OC(C)OC(=O)CCCC[C@@H]1CCSS1 (stereo partly drawn) [Example 17, (R)-5-[1,2]dithiolan-3-yl-pentanoic acid 1-acetoxy-ethyl ester] | partial hydrolization

Same assay, conditions: 1 mg murine liver protein extract, 50 μg compound, 3 hours, 25° C.

Row | Compound | enzymatic hydrolysis after 3 h (FIG. 2)
8 | CC(=O)OC(C)OC(=O)CCCC[C@@H]1CCSS1 (stereo partly drawn) [Example 17, (R)-5-[1,2]dithiolan-3-yl-pentanoic acid 1-acetoxy-ethyl ester] | completely hydrolyzed
9 | CC(OC(=O)CCCC[C@@H]1CCSS1)OC(=O)C(C)(C)C (stereo partly drawn) [Example 18, (R)-5-[1,2]dithiolan-3-yl-pentanoic acid 2,2-dimethyl-propionyloxyethyl ester] | completely hydrolyzed

Same assay, conditions: 1 mg murine liver protein extract, 50 μg compound, 24 hours, 25° C.

Row | enzymatic hydrolysis after 24 h (FIG. 3) | amount of (R)-alpha-lipoic acid released after 24 h (FIG. 3) | Compound
10 | remained essentially unaltered |  | O=C(CCCC[C@@H]1CCSS1)N1CCOCC1 [Example 1, (R)-1-morpholin-4-yl-5-[1,2]dithiolan-3-yl-pentan-1-one]
11 | not completely hydrolysed | very considerable amount | CCCCNC(=O)CCCC[C@@H]1CCSS1 [Example 2, (R)-5-[1,2]dithiolan-3-yl-pentanoic acid butylamide]
12 | remained essentially unaltered |  | CCCC(C)NC(=O)CCCC[C@@H]1CCSS1 (stereo partly drawn) [Example 5, (R)-5-[1,2]dithiolan-3-yl-pentanoic acid(1-methyl-butyl)-amide]
13 | partial hydrolization | reduced release | CNC(=O)CCCC[C@@H]1CCSS1 [Example 6, (R)-5-[1,2]dithiolan-3-yl-pentanoic acid methylamide]
14 | partial hydrolization | reduced release | CCCNC(=O)CCCC[C@@H]1CCSS1 [Example 7, (R)-5-[1,2]dithiolan-3-yl-pentanoic acid propylamide]
15 | partial hydrolization | reduced release | CC(C)NC(=O)CCCC[C@@H]1CCSS1 [Example 8, (R)-5-[1,2]dithiolan-3-yl-pentanoic acid isopropylamide]
16 | partial hydrolization | reduced release | O=C(CCCC[C@@H]1CCSS1)NCCc1ccccc1 [Example 11, (R)-5-[1,2]dithiolan-3-yl-pentanoic acid phenethyl-amide]
17 | partial hydrolization | reduced release | O=C(CCCC[C@@H]1CCSS1)NCCCc1ccccc1 [Example 12, (R)-5-[1,2]dithiolan-3-yl-pentanoic acid(3-phenyl-propyl)-amide]
18 | partial hydrolization | reduced release | O=C(CCCC[C@@H]1CCSS1)NCCCCc1ccccc1 [Example 13, (R)-5-[1,2]dithiolan-3-yl-pentanoic acid(4-phenyl-butyl)-amide]
19 | partial hydrolization | reduced release | O=C(CCCC[C@@H]1CCSS1)NC1CCCC1 [Example 14, (R)-5-[1,2]dithiolan-3-yl-pentanoic acid cyclopentylamide]
20 | partial hydrolization | reduced release | CCCCCNC(=O)CCCC[C@@H]1CCSS1 [Example 19, (R)-5-[1,2]dithiolan-3-yl-pentanoic acid n-pentylamide]
21 | remained essentially unaltered |  | CCCCCCCNC(=O)CCCC[C@@H]1CCSS1 [Example 20, (R)-5-[1,2]dithiolan-3-yl-pentanoic acid n-heptylamide]
22 | remained essentially unaltered |  | CCC(CC)NC(=O)CCCC[C@@H]1CCSS1 [Example 21, (R)-5-[1,2]dithiolan-3-yl-pentanoic acid pentan-3-ylamide]
23 | not completely hydrolysed | very considerable amount | O=C(CCCC[C@@H]1CCSS1)NCc1ccccc1 [Example 22, (R)-5-[1,2]dithiolan-3-yl-pentanoic acid N-benzylamide]
24 | not completely hydrolysed | very considerable amount | COc1ccc(CNC(=O)CCCC[C@@H]2CCSS2)cc1O [Example 23, (R)-5-[1,2]dithiolan-3-yl-pentanoic acid N-(3-hydroxy-4methoxybenzyl)amide]
25 | not completely hydrolysed | very considerable amount | O=C(CCCC[C@@H]1CCSS1)NCC1CC1 [Example 24, (R)-5-[1,2]dithiolan-3-yl-pentanoic acid N-(cyclopropylmethyl)amide]
26 | not completely hydrolysed | very considerable amount | C=CCCNC(=O)CCCC[C@@H]1CCSS1 [Example 25, (R)-5-[1,2]dithiolan-3-yl-pentanoic acid N-(buten-3-yl)amide]
27 | remained essentially unaltered |  | CC1CCN(C(=O)CCCC[C@@H]2CCSS2)CC1 [Example 28, (R)-5-[1,2]dithiolan-3-yl-pentanoic acid 1-(4-methylpiperidin-1-yl)amide]

Row | Compound | enzymatic hydrolysis after 24 h (FIG. 3) | amount of (R)-alpha-lipoic acid released after 24 h (FIG. 3)
28 | COc1ccc(CNC(=O)CCCC[C@@H]2CCSS2)cc1OC(C)=O [Example 27, (R)-5-[1,2]dithiolan-3-yl-pentanoic acid N-(3-acetoxy-4methoxybenzyl)amide] | not completely hydrolysed | very considerable amount

System: HepG2 cells
Test: Variation in NADPH levels (total NADPH/NADP ratio), spectrophotometric kit
Type: cell-based, human
Conditions: HepG2 cells, 5, 10, 100 and 500 μM, 72 hours
Excerpt: Although it is known that under hyperglycemic conditions α-LA induces AMPK activation in hepatic cells, the molecular mechanisms responsible for this biochemical process are not yet known. As envisaged in the description, the inventors of the present invention have advanced the hypothesis that AMPK activation by α-LA is the result of changes in the amount of NADH and NADHP present in cells, due to the interference of α-LA and/or its analogous derivatives in the oxidation-reduction processes. To verify this hypothesis, use was made of commercial kits (by Valter Occhiena) able to analyze the variations in the cellular amounts of NAD(P)H relative to total NAD(P), in the presence of increasing concentrations of the compounds under analysis (total NAD=NADH+NAD^+; total NADP=NADPH+NADP^+).

Row | Compound | effect on NADPH levels (FIG. 11)
29 | CC(C)NC(=O)CCCC[C@@H]1CCSS1 [Example 8, (R)-5-[1,2]dithiolan-3-yl-pentanoic acid isopropylamide] | influenced NADPH levels, in a dose dependent manner

System: not given
Test: not given
Conditions: not given

Row | melting point | Compound
30 | 144.6 to 145.8 °C | CC(=O)NCCNC(=O)CCCCC1CCSS1 (racemic) [Example 10a, 5-[1,2]dithiolan-3-yl-pentanoic acid(2-acetylamino-ethyl)-amide]
31 | 144.6 to 145.8 °C | CC(=O)NCCNC(=O)CCCC[C@@H]1CCSS1 [Example 10, (R)-5-[1,2]dithiolan-3-yl-pentanoic acid(2-acetylamino-ethyl)-amide]
